According to patent US20070202547A1, “Methods For Detecting Substances Which Bind To The Amyloid Precursor Protein Or Beta Amyloid Fragments, And Binding Compounds” (priority 2004, published 2007):

Columns and labels:
Type in all cases: biochemical
BACE2 [1] = target: T1, BACE2 (Homo sapiens, UniProt P05067, K670N/M671F/D672E/A673V); assay: BACE2 cleavage of APP at the beta-secretase cleavage site (ALPHA); details: result in words
T1 construct: IC50, BACE2 cleavage of APP at the beta-secretase cleavage site; other: MBP-biotinylated APP fusion protein with NFEV s; activity against BACE2 cleavage of APP at the beta-secretase position; other: result in words; biotin label
Protocol: (§1) The effect of Examples 1-4 on cleavage of APP at the beta-secretase cleavage site was assayed as follows:
(§2) • 25 μL 0.2 M Sodium Acetate, pH 4.5 • 10 μL 10× protease inhibitor cocktail (Roche, cat # 1836153) • 10 μL Bovine Serum Albumin (1 mg/mL solution) • 4 μL 5% CHAPS • 1 μL EDTA (150 mM, pH 4.5) • 2 μL DF • 4 μL MBP(Maltose binding protein)—biotininylated APP fusion protein containing the NFEV BACE cleavage site (bacterially expressed, 10 μM solution) • 1 μL DMSO or compound dissolved in DMSO • 2 μL BACE2 (CHO cell expressed protein, 250 nM) • 41 μL distilled water The reactions were incubated at 37° C. for 30 minutes, and were then quenched with 4 μL 1 M TrisHCl, pH 8.0. Detection of MBP Biotin APP(NF) Cleavage Product using ALPHA ALPHA Assay Mix was Prepared as Follows: • 20 μL Streptavidin Donor Beads (from AlphaScreen General IgG (Protein A) Detection Kit Perkin Elmer Life Sciences); 10,000 pts (Part Number 6760617M) • 20 μL Protein A Acceptor beads (from AlphaScreen General IgG (Protein A) Detection Kit Perkin Elmer Life Sciences); 10,000 pts (Part Number 6760617M) • 3.7 μL Affinity purified anti-NF antibody (203 μg/mL) (described in WO 02/094985) • 4.5 mL 0.1% BSA in PBS • 4 μL of quenched reaction mixture was combined with 46 μL of the assay mix. The reactions were incubated at room temperature overnight and read using the ALPHAQuest plate reader.

BACE2 [2] = target: T2, BACE2 (Homo sapiens, UniProt P05067, A673V/D672E/K670N/M671F); assay: as above; details: MBP-biotinylated APP fusion protein with NFEV site, pH 4.5, 30 minutes
T2 construct: IC50, BACE2 cleavage of APP at the beta-secretase cleavage site; other: MBP-biotinylated APP fusion protein with NFEV s; activity against BACE2 cleavage of APP at the beta-secretase position; other: result in words; biotin label
Protocol: as §1, §2

BACE1 [3] = assay: BACE1 cleavage of full-length APP or beta-site P5/P5' peptide (FIG. 3); details: relative to DMSO-treated
Excerpt: (§3) FIG. 3(A) depicts inhibition by Statine-Val, which is a known inhibitor of BACE cleavage of both APP and APP fragments, including the beta-site P5/P5′ peptide fragment. […] depicts inhibition by Example 4. The graphs depict inhibition of cleavage of a full-length APP substrate (∘) or the beta-site P5/P5 fragment. (□). Enzymatic activity is shown relative to DMSO-treated BACE cleavage.

BACE1 [4] = target: BACE1 (Homo sapiens, UniProt P56817); assay: as above; details: relative to DMSO-treated
Sequence of BACE1 (Homo sapiens, UniProt P56817) (P56817 46-501): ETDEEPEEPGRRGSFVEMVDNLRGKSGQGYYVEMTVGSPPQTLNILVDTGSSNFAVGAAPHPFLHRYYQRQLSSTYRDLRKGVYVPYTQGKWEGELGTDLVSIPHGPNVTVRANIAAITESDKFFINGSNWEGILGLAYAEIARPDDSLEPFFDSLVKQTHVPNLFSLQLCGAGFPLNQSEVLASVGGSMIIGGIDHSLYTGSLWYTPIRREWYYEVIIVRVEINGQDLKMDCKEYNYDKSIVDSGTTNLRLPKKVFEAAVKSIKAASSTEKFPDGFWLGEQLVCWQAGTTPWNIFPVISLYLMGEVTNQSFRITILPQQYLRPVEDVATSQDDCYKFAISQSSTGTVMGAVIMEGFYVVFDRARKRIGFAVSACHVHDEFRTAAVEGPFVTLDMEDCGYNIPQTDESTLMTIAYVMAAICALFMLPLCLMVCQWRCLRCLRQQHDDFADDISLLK
Excerpt: as §3

BACE2 [5] = assay: BACE2 cleavage of EV amyloid / Aβ (mass spectrometric analysis); details: 100 μM, result in words
Protocol: The effect of inhibition of BACE 2 cleavage of EV amyloid was assayed using a protocol described in Shi et al, 2003, J. Biol. Chem., 278:21286-21294. The results of assaying Examples 1-4 at 100 μM are shown below: […]

gamma-secretase = gamma-secretase (Homo sapiens, UniProt P05067); assay: Gamma-secretase cleavage of CTFβ substrate (HeLa cell membrane extract); details: Aβ40 detection with 6E-10/G2-10, read-out: CTFβ CLEAVAGE AT POSITION 40
Protocol: Accordingly, Examples 1-4 were tested for their ability to inhibit gamma-secretase cleavage of both a full-length CTFβ substrate, as described in Li, 2000, Proc. Natl Acad Sci. 97:6138-6143. The assays were carried out as follows:
Inhibition of CTFβ Cleavage
• 10 μL 10× protease inhibitor cocktail (Roche, cat # 1836153) • 25 μL 4× Buffer (50 mM PIPES pH7.0, 150 mM KCl, 5 mM MgCl2, 5 mM CaCl2) • 2 μL 10% CHAPSO • 5 μL HeLa cell membrane extract characterized for gamma-secretase activity • 7 μL 25 μM bacterially expressed CTFβ • 51 μL water • 1 μL compound in DMSO The reactions were incubated at 37° C. for 150 min and quenched with 25 μL 5× RIPA buffer (750mM NaCl, 5% NP-40, 2.5% DOC, 0.5% SDS, 250 mM Tris H8.0). Detection:
Gamma-secretase cleavage of the CTFβ substrate was assessed by incubating 50 μL of the reaction with 25 μL of 4 μg/mL biotinylated antibody 6E-10 which is specific for the N-terminal region of Aβ, and 25 μL of 1.5 μg/mL of a ruthinylated antibody G2-10, which is specific to the C-terminal region of Aβ40. The C-terminal region is present only after gamma secretase cleavage of Aβ. The antibodies were allowed to bind overnight at room temperature. The following day, 25 μL of 80 μg/mL streptavidin-coated Dynabeads (M-280) were added to each reaction, allowed to bind for 30 minutes, and quenched with 275 μL IGEN assay buffer. Quantification of the gamma-secretase cleavage products was carried out using an Origen Analyzer.

| Compound | activity against BACE2 cleavage of APP at the beta-secretase position (BACE2 [1]) | IC50 (BACE2 [2]) | inhibition of BACE1 cleavage of full-length APP substrate (BACE1 [3]) | inhibition of BACE1 cleavage of beta-site P5/P5' peptide fragment (BACE1 [4]) | effect on BACE2 cleavage at all Aβ sites (BACE2 [5]; FIG. 1) | effect on BACE2 cleavage at position 34 (BACE2 [5]) | effect on BACE2 cleavage at positions 19 and 20 (BACE2 [5]) | IC50 (gamma-secretase) |
| --- | --- | --- | --- | --- | --- | --- | --- | --- |
| Oc1cc2c(cc1CCCOc1ccc(-c3nnn[nH]3)cc1Cl)OC(CCc1ccccc1)C2 (stereo not drawn) [Example 4, 6-{3-[2-chloro-4-(1H-tetrazol-5-yl)phenoxy]propyl}-2-(2-phenylethyl)-2,3-dihydro-1benzofuran-5-oI] | capable of inhibiting BACE2 cleavage of APP at the beta-secretase position with similar effectiveness to their inhibition of BACE1 cleavage at the same site | 20 µM | inhibits cleavage of APP only | inhibits cleavage of APP only | suppressed cleavage at all Aβ sites | blocked cleavage at position 34 | enhanced cleavage of Aβ at positions 19 and 20 | – |
| O=C(O)COc1ccc2c(c1)CC(CCc1ccccc1)O2 (stereo not drawn) [Example 3] | – | ~100 µM | – | – | – | – | – | 49 µM |
